Assay results from ChEMBL document CHEMBL4118182, “Straightforward hit identification approach in fragment-based discovery of bromodomain-containing protein 4 (BRD4) inhibitors” (Bioorg Med Chem, 2018).
pIC50: −log10 of the molar value. Activity calls are given as the source filed them. The calls are words filed in the database; no cut-off is given here.

How the values were obtained:
[1] = biological target: T1, Bromodomain-containing protein 4 (Homo sapiens, UniProt O60885); assay: Binding affinity to recombinant human N-terminal His6-tagged BRD4 bromodomain 1 (44 to 168 residues) expressed in Escherichia coli BL21(DE3) assessed as change in melting temperature at 10 uM by differential scanning fluorimetry
[2] = biological target: T1, Bromodomain-containing protein 4; assay: Binding affinity to recombinant human N-terminal His6-tagged BRD4 bromodomain 1 (44 to 168 residues) expressed in Escherichia coli BL21(DE3) assessed as change in melting temperature at 40 uM by differential scanning fluorimetry
[3] = Solubility of the compound in aqueous buffer at 1 mM; assay type: physicochemical; conditions: 1000 µM
[4] = biological target: T1, Bromodomain-containing protein 4; assay: Inhibition of recombinant human N-terminal His6-tagged BRD4 at 20 uM by TR-FRET assay relative to control
[5] = biological target: T1, Bromodomain-containing protein 4; assay: Binding affinity to recombinant human N-terminal His6-tagged BRD4 bromodomain 1 (44 to 168 residues) expressed in Escherichia coli BL21(DE3) assessed as increase in melting temperature at 50 to 200 uM by differential scanning fluorimetry
[6] = Solubility of the compound in DMSO at 200 mM; assay type: physicochemical; conditions: 200000 µM
[7] = biological target: Carbonic anhydrase 2 (Bos taurus) (UniProt P00921); assay: Binding affinity to bovine carbonic anhydrase-2 assessed as change in melting temperature at 20 uM by differential scanning fluorimetry
[8] = biological target: T1, Bromodomain-containing protein 4; assay: Binding affinity to recombinant human N-terminal His6-tagged BRD4 bromodomain 1 (44 to 168 residues) expressed in Escherichia coli BL21(DE3) assessed as change in melting temperature at 20 uM by differential scanning fluorimetry
[9] = biological target: T1, Bromodomain-containing protein 4; assay: Inhibition of recombinant human N-terminal His6-tagged BRD4 by TR-FRET assay

Carbonic anhydrase 2 (Bos taurus), sequence (P00921 2-260 limits assumed): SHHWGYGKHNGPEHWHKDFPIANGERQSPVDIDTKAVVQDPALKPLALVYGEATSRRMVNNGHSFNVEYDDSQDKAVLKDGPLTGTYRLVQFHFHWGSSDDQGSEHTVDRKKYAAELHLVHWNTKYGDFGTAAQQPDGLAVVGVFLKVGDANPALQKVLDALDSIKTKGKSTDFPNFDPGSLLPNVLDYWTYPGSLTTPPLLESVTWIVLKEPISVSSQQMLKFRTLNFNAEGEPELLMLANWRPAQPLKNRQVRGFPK

| deltaTm [1] [K] | deltaTm [2] [K] | solubility [3] | inhibition [4] | Activity [5] | solubility [6] | deltaTm [7] [K] | ΔTm [8] [°C] | pIC50 [9] | SMILES |
| --- | --- | --- | --- | --- | --- | --- | --- | --- | --- |
| > 0.5 | > 1 | Soluble | inactive | Active | Soluble | > 0.5 |  |  | Cc1nc(-c2cccc(N)c2)cs1 |
| > 0.5 | > 1 | Soluble |  | Active | Soluble | > 0.5 | -2.1 |  | Cc1nc2ccc(C(=O)O)cc2o1 |
| > 0.5 | > 1 | Soluble | 63.4% | Active | Soluble | > 0.5 | 1.39 | 4.68 | COCCOc1ccccc1CNc1ccc2c(c1)n(C)c(=O)n2C |
| > 0.5 | > 1 | Soluble | Active | Active | Soluble | > 0.5 | 2.8 |  | Cn1c(=O)n(C)c2cc(N)ccc21 |
| > 0.5 | > 1 | Soluble | 63.3% | Active | Soluble | > 0.5 | 1.32 | 4.57 | Cc1cc2cc(NC(=O)c3ccc(Oc4ccc(C(F)(F)F)cn4)cc3)ccc2[nH]1 |
| > 0.5 | > 1 | Soluble | 76.5% | Active | Soluble | > 0.5 | 1.88 | 5.72 | Cn1c(=O)n(C)c2cc(NC(=O)c3cc4c(s3)CCC4)ccc21 |
| > 0.5 | > 1 | Soluble |  | Active | Soluble | > 0.5 | 2.8 |  | CC1Oc2ccc(N)cc2NC1=O (centres undefined) |
| > 0.5 | > 1 | Soluble | 68.2% | inactive | Soluble | > 0.5 | -1.85 | < 4.00 | CC1CCCC(C)N1C(=O)CSc1nc2sc3c(c2c(=O)n1C)CCCC3 (centres undefined) |
|  |  |  |  |  |  |  |  | 4.80 | COc1cccc(C(=O)Nc2ccc3c(c2)n(C)c(=O)n3C)c1 |
| > 0.5 | > 1 | Soluble | 80.5% | Active | Soluble | > 0.5 | 1.2 | 5.13 | Cc1nc(-c2cccc(NC(=O)c3ccc4[nH]c(C)c(C)c4c3)c2)cs1 |
| > 0.5 | > 1 | Soluble | Active | Active | Soluble | > 0.5 | 1.7 |  | Nc1ccc2nc(N3CCCC3)sc2c1 |
| > 0.5 | > 1 | Soluble |  | Active | Soluble | > 0.5 | 2.1 |  | CC1(C)C(=O)Nc2cc(C(=O)O)ccc21 |
| > 0.5 | > 1 | Soluble | 67% | Active | Soluble | > 0.5 | 0.82 | 4.22 | COc1ccc(OC)c(CCC(=O)Nc2ccc3c(c2)n(C)c(=O)n3C)c1 |
| > 0.5 | > 1 | Soluble | 64.4% | Active | Soluble | > 0.5 | 1.2 | 5.52 | Cn1cc(NC(=O)c2occc2COc2ccccc2)ccc1=O |
| > 0.5 | > 1 | Soluble | Active | Active | Soluble | > 0.5 | 1.4 |  | Cc1cc2cc(N)ccc2[nH]1 |
|  |  |  |  |  |  |  |  | 5.60 | Cc1ccc(S(=O)(=O)Nc2ccc3c(c2)n(C)c(=O)n3C)c(C)c1 |
| > 0.5 | > 1 | Soluble | 72.4% | Active | Soluble | > 0.5 | 2.01 | < 4.00 | Cc1ccc(C(=O)Nc2ccc3nc(N4CCCC4)sc3c2)cc1[N+](=O)[O-] |
| > 0.5 | > 1 | Soluble | 65.9% | inactive | Soluble | > 0.5 | -2.63 | < 4.00 | O=C1C(=O)N(CCCOc2ccccc2)c2ccc(Cl)cc21 |
| > 0.5 | > 1 | Soluble | 72.7% | Active | Soluble | > 0.5 | 1.39 | 4.62 | Cc1cc2cc(NC(=O)c3sc4nc(C(F)(F)F)ccc4c3C)ccc2[nH]1 |
